According to US20260241012A1, “1,8-NAPHTHYRIDIN-2-ONE HETEROBIFUNCTIONAL BCL6 DEGRADERS” (Treeline Biosciences, Inc., priority 2022, published 2026):

Target: T1, N-terminal HiBiT tagged BCL6 (Homo sapiens, UniProt P41182)
T1 construct: expressed in transfected cells; host or cells: HT1080 (ATCC CCL-121), stably transduced with lentivirus pLV-UBC-N-HiBiT-BCL6-PGK-puro
Test: HiBiT based degradation assay
Type: cell-based
Details: HT1080 cells expressing N-terminal HiBiT tagged BCL6, 5 hours of incubation; for Ymin (5 hr): BCL6 degradation normalized with DMSO control; for DC50: four-parameter logistic model, read-out: EC50 (5 hr)
Description: Human BCL6 protein coding open reading frame fused with N-terminal HiBiT coding sequence was synthesized from Integrated DNA Technologies (IDT). Next, the N-HiBiT-BCL6 sequence was cloned into pLV-UBC-PGK-Puro, a lentivirus plasmid purchased from Vectorbuilder, to generate pLV-UBC-N-HiBiT-BCL6-PGK-puro. Lentiviral particles were generated from Lenti-X™ 293T cells (Clontech) by co-transfection of pLV-UBC-N-HiBiT-BCL6-PGK-puro plasmids and lentiviral packaging plasmid mix (Cellecta). HT1080 [HT1080] (ATCC CCL-121) cells were infected with the lentivirus, and HT1080 cells stably integrated with the lentiviral vectors were established by incubation with 1 μg/mL puromycin (Thermofisher).
HT1080 cells expressing N-terminal HiBiT tagged BCL6 were dispensed into a 384-well plate pre-spotted with compounds at varying concentrations. Five thousand cells were seeded into each well in 40 μL of RPMI 1640 media plus 10% Fetal Bovine Serum (10082-147, Thermofisher). After 5 hours of incubation at 37° C. with 5% CO2, 30 μL of the NANO-GLOR HiBiT Lytic Detection System working solution (Promega) was added to each well and incubated at room temperature for 15 min. After incubation, luminescence was read on a PHERAstar FSX Plate Reader (BMG). BCL6 degradation at each indicated concentration was normalized with DMSO control. The BCL6 degradation curves were plotted using a four-parameter logistic model.

Ymin (5 hr) | DC50 | SMILES
++++ (Ymin < 30%) | < 10 nM | CNC(=O)COc1cc2cc(Nc3nc(N4CC5(CC[C@H](Nc6ccc7c(C8CCC(=O)NC8=O)nn(C)c7c6)[C@H](C)C5)C4)ncc3Cl)cnc2n(C)c1=O (relative stereo) [Compound 156b, 2-((6-((5-chloro-2-((6R,7S)-7-((3-(2,6-dioxopiperidin-3-yl)-1-methyl-1H-indazol-6-yl)amino)-6-methyl-2-azaspiro[3.5]nonan-2-yl)pyrimidin-4-yl)amino)-1-methyl-2-oxo-1,2-dihydro-1,8-naphthyridin-3-yl)oxy)-N-methylacetamide]
++++ (Ymin < 30%) | < 10 nM | CNC(=O)COc1cc2cc(Nc3nc(N4CC5(CC[C@@H](Nc6ccc7c(C8CCC(=O)NC8=O)nn(C)c7c6)[C@H](C)C5)C4)ncc3Cl)cnc2n(C)c1=O (relative stereo) [Compound 156d, 2-((6-((5-chloro-2-((6R,7R)-7-((3-(2,6-dioxopiperidin-3-yl)-1-methyl-1H-indazol-6-yl)amino)-6-methyl-2-azaspiro[3.5]nonan-2-yl)pyrimidin-4-yl)amino)-1-methyl-2-oxo-1,2-dihydro-1,8-naphthyridin-3-yl)oxy)-N-methylacetamide]
+++ (30% ≤ Ymin < 50%) | < 10 nM | CNC(=O)COc1cc2cc(Nc3nc(N4CC5(CC[C@H](Nc6cccc7c(C8CCC(=O)NC8=O)nn(C)c67)[C@H](C)C5)C4)ncc3Cl)cnc2n(C)c1=O (relative stereo) [Compound 159a, 2-((6-((5-chloro-2-((6R,7S)-7-((3-(2,6-dioxopiperidin-3-yl)-1-methyl-1H-indazol-7-yl)amino)-6-methyl-2-azaspiro[3.5]nonan-2-yl)pyrimidin-4-yl)amino)-1-methyl-2-oxo-1,2-dihydro-1,8-naphthyridin-3-yl)oxy)-N-methylacetamide]
+++ (30% ≤ Ymin < 50%) | < 10 nM | CNC(=O)COc1cc2cc(Nc3nc(N4CC5(CC[C@@H](Nc6cccc7c(C8CCC(=O)NC8=O)nn(C)c67)[C@@H](C)C5)C4)ncc3Cl)cnc2n(C)c1=O (relative stereo) [Compound 159b, 2-((6-((5-chloro-2-((6S,7R)-7-((3-(2,6-dioxopiperidin-3-yl)-1-methyl-1H-indazol-7-yl)amino)-6-methyl-2-azaspiro[3.5]nonan-2-yl)pyrimidin-4-yl)amino)-1-methyl-2-oxo-1,2-dihydro-1,8-naphthyridin-3-yl)oxy)-N-methylacetamide]
+++ (30% ≤ Ymin < 50%) | 10 to 100 nM | CNC(=O)COc1cc2cc(Nc3nc(N4CC5(CC[C@@H](Nc6ccc7c(C8CCC(=O)NC8=O)nn(C)c7c6)[C@@H](C)C5)C4)ncc3Cl)cnc2n(C(C)C)c1=O (relative stereo) [Compound 180a, rel-2-((6-((5-chloro-2-((6S,7R)-7-((3-(2,6-dioxopiperidin-3-yl)-1-methyl-1H-indazol-6-yl)amino)-6-methyl-2-azaspiro[3.5]nonan-2-yl)pyrimidin-4-yl)amino)-1-isopropyl-2-oxo-1,2-dihydro-1,8-naphthyridin-3-yl)oxy)-N-methylacetamide]
+++ (30% ≤ Ymin < 50%) | < 10 nM | CNC(=O)COc1cc2cc(Nc3nc(N4CC5(CC[C@H](Nc6ccc7c(C8CCC(=O)NC8=O)nn(C)c7c6)[C@H](C)C5)C4)ncc3Cl)cnc2n(C(C)C)c1=O (relative stereo) [Compound 180b, rel-2-((6-((5-chloro-2-((6R,7S)-7-((3-(2,6-dioxopiperidin-3-yl)-1-methyl-1H-indazol-6-yl)amino)-6-methyl-2-azaspiro[3.5]nonan-2-yl)pyrimidin-4-yl)amino)-1-isopropyl-2-oxo-1,2-dihydro-1,8-naphthyridin-3-yl)oxy)-N-methylacetamide]
++++ (Ymin < 30%) | < 10 nM | CNC(=O)COc1cc2cc(Nc3nc(N4CC5(CC[C@H](Nc6ccc7c(C8CCC(=O)NC8=O)nn(C)c7c6)[C@@H](C)C5)C4)ncc3Cl)cnc2n(C(C)C)c1=O (relative stereo) [Compound 180c, rel-2-((6-((5-chloro-2-((6S,7S)-7-((3-(2,6-dioxopiperidin-3-yl)-1-methyl-1H-indazol-6-yl)amino)-6-methyl-2-azaspiro[3.5]nonan-2-yl)pyrimidin-4-yl)amino)-1-isopropyl-2-oxo-1,2-dihydro-1,8-naphthyridin-3-yl)oxy)-N-methylacetamide]
++++ (Ymin < 30%) | < 10 nM | CNC(=O)COc1cc2cc(Nc3nc(N4CC5(CC[C@@H](Nc6ccc7c(C8CCC(=O)NC8=O)nn(C)c7c6)[C@H](C)C5)C4)ncc3Cl)cnc2n(C(C)C)c1=O (relative stereo) [Compound 180d, rel-2-((6-((5-chloro-2-((6R,7R)-7-((3-(2,6-dioxopiperidin-3-yl)-1-methyl-1H-indazol-6-yl)amino)-6-methyl-2-azaspiro[3.5]nonan-2-yl)pyrimidin-4-yl)amino)-1-isopropyl-2-oxo-1,2-dihydro-1,8-naphthyridin-3-yl)oxy)-N-methylacetamide]
++++ (Ymin < 30%) | < 10 nM | CNC(=O)COc1cc2cc(Nc3nc(N4CC5(CC[C@@H](Oc6ccc7c(C8CCC(=O)NC8=O)nn(C)c7c6)[C@@H](C)C5)C4)ncc3Cl)cnc2n(C(C)C)c1=O (relative stereo) [Compound 185b, 2-[[6-[[5-chloro-2-[(6S,7R)-7-[3-(2,6-dioxo-3-piperidyl)-1-methyl-indazol-6-yl]oxy-6-methyl-2-azaspiro[3.5]nonan-2-yl]pyrimidin-4-yl]amino]-1-isopropyl-2-oxo-1,8-naphthyridin-3-yl]oxy]-N-methyl-acetamide]
++++ (Ymin < 30%) | < 10 nM | CNC(=O)COc1cc2cc(Nc3nc(N4CC5(CC[C@H](Oc6ccc7c(C8CCC(=O)NC8=O)nn(C)c7c6)[C@@H](C)C5)C4)ncc3Cl)cnc2n(C(C)C)c1=O (relative stereo) [Compound 185c, 2-[[6-[[5-chloro-2-[(6S,7S)-7-[3-(2,6-dioxo-3-piperidyl)-1-methyl-indazol-6-yl]oxy-6-methyl-2-azaspiro[3.5]nonan-2-yl]pyrimidin-4-yl]amino]-1-isopropyl-2-oxo-1,8-naphthyridin-3-yl]oxy]-N-methyl-acetamide]
++++ (Ymin < 30%) | < 10 nM | CNC(=O)COc1cc2cc(Nc3nc(N4CC5(CC[C@@H](Oc6ccc7c(C8CCC(=O)NC8=O)nn(C)c7c6)[C@H](C)C5)C4)ncc3Cl)cnc2n(C(C)C)c1=O (relative stereo) [Compound 185d, 2-[[6-[[5-chloro-2-[(6R,7R)-7-[3-(2,6-dioxo-3-piperidyl)-1-methyl-indazol-6-yl]oxy-6-methyl-2-azaspiro[3.5]nonan-2-yl]pyrimidin-4-yl]amino]-1-isopropyl-2-oxo-1,8-naphthyridin-3-yl]oxy]-N-methyl-acetamide]
++++ (Ymin < 30%) | < 10 nM | CNC(=O)COc1cc2cc(Nc3nc(N4CC5(CC[C@@H](Nc6ccc7c(C8CCC(=O)NC8=O)nn(C)c7c6)[C@@H](C(F)(F)F)C5)C4)ncc3Cl)cnc2n(C(C)C)c1=O (relative stereo) [Compound 221a, 2-((6-((5-chloro-2-((6S,7R)-7-((3-(2,6-dioxopiperidin-3-yl)-1-methyl-1H-indazol-6-yl)amino)-6-(trifluoromethyl)-2-azaspiro[3.5]nonan-2-yl)pyrimidin-4-yl)amino)-1-isopropyl-2-oxo-1,2-dihydro-1,8-naphthyridin-3-yl)oxy)-N-methylacetamide]
++++ (Ymin < 30%) | < 10 nM | CNC(=O)COc1cc2cc(Nc3nc(N4CC5(CC[C@H](Nc6ccc7c(C8CCC(=O)NC8=O)nn(C)c7c6)[C@@H](C(F)(F)F)C5)C4)ncc3Cl)cnc2n(C(C)C)c1=O (relative stereo) [Compound 221b, rel-2-((6-((5-chloro-2-((6S,7S)-7-((3-(2,6-dioxopiperidin-3-yl)-1-methyl-1H-indazol-6-yl)amino)-6-(trifluoromethyl)-2-azaspiro[3.5]nonan-2-yl)pyrimidin-4-yl)amino)-1-isopropyl-2-oxo-1,2-dihydro-1,8-naphthyridin-3-yl)oxy)-N-methylacetamide]
++++ (Ymin < 30%) | 10 to 100 nM | CNC(=O)COc1cc2cc(Nc3nc(N4CC[C@@H](CN5CCN(c6cccc7c(C8CCC(=O)NC8=O)nn(C)c67)CC5)[C@H](F)C4)ncc3Cl)cnc2n(C(C)C)c1=O (relative stereo) [Compound 238a, 2-((6-((5-chloro-2-((3S,4S)-4-((4-(3-(2,6-dioxopiperidin-3-yl)-1-methyl-1H-indazol-7-yl)piperazin-1-yl)methyl)-3-fluoropiperidin-1-yl)pyrimidin-4-yl)amino)-1-isopropyl-2-oxo-1,2-dihydro-1,8-naphthyridin-3-yl)oxy)-N-methylacetamide]
